Measured values from paper PMC2753520 (Journal of medicinal chemistry, 2009).

Assay: PAMPA passive permeability
Assay type: in vitro ADME
Conditions: pH 7.4

Permeability (PAMPA, Pe): high permeability
SMILES: CCCCCCOc1ccc(C(=O)CCN(C)C)c2ccccc12 [13{1}]
